Consider 89 compounds from a melting point compilation (Tetko et al.; mined from patent text by program, amines drawn as free bases though some values may be those of a salt).

The structures appear in SMILES notation.

Usually melting point stands for the temperature of the solid-liquid transition. `N#CC1(c2ccc(F)cc2)CCC(N2CCC(C(=O)O)(c3ccccc3)CC2)CC1` (centres undefined) came in with a melting point of 281 °C. `CCOC(=O)c1cnn(-c2cccc(S(=O)(=O)N(C)C)n2)c1S(N)(=O)=O`: the melting point lay within 102 to 104 °C. To `O=C(O)CN(Cc1ccc(OCc2ccc(F)cc2)cc1)C(=O)c1cn2cc(-c3ccc(Cl)cc3)ccc2n1` belongs 206 °C.

Consider `OCCCCc1ccc(OCc2coc(/C=C/c3ccc(F)cc3F)n2)cc1`, for which the melting point fell in the range of 75 to 76 °C.

In turn, `CCn1ncc(C(=O)c2cc(C)c3c(c2C)C(=O)C(C)(C)CS3(=O)=O)c1O` yielded a melting point of 160 to 163 °C.

For the compound `CCCc1[nH]c2cc(C(=O)OC)ccc2c1C(=O)C1CC1`, the melting point was 152 to 154 °C. For `CS(=O)(=O)c1ccc2c(c1)C1(O)C(C2)SC(=Nc2ccccc2)N1c1ccccc1` (centres undefined), the melting point came out at 75 °C. The compound `OCc1ccc(-c2ccc(-c3cn([C@H]4CN5CCC4CC5)nn3)o2)cc1` registered a melting point of 209 °C. To `CN(C)C(=O)N(C)C(=O)N1CCN(c2ccc(F)cc2)CC1` belongs 83 to 84 °C; to `CC(C(=O)O)C(=O)Nc1cccc(S(=O)(=O)n2c(=O)[nH]c3cc(Cl)ccc3c2=O)c1` (centres undefined), 187 to 188 °C; to `COc1ccc(C2Sc3cc(Oc4ccc(Cl)cc4)ccc3NC(=O)C2O)cc1` (centres undefined), 243 to 245 °C. Consider `CCC1(CC)c2cc(C)c(C)cc2C(CC)(CC)N1OC(C)=O`, for which the melting point was in the range of 80 to 82 °C. The value for `Cc1ccccc1OC1CCN(CCc2c[nH]c3ccccc23)CC1` was 88 to 90 °C; that for `O=C1c2ccccc2-c2[nH]c(=O)cnc21` was > 300 °C. To `COCCc1nc2c(N)nc3ccccc3c2n1CCOCCN(C)C(=O)C1CCCCC1` belongs 52 to 57 °C; to `CCc1cccc(C)c1NC(=O)C(C)N` (centres undefined), 68.5 to 70 °C. To `COc1ccc2cnc(Nc3ccccc3)nc2c1C(C)C` belongs 172 to 173 °C; to `Fc1ccc(Nc2nc(-c3ccc(F)cc3)cs2)cc1`, 127 °C. As for `CS(=O)(=O)CCCn1c(=NC(=O)c2cccc(Cl)c2)sc2cc(OC(F)(F)F)ccc21`, the melting point turned out to be 188 °C. To `FC(F)c1nc2ccccc2n1-c1nc(N2CCOCC2)nc(N2CCOCC2)n1` belongs 211 to 214 °C; to `CSc1nsc(NC(=O)C(C)(C)C)c1C#N`, 177 to 178 °C; to `C#CC12CC3CC(C1)CC(C14CC5CC(CC(C#C)(C5)C1)C4)(C3)C2`, 208 to 210 °C. Turning to `Cc1nnc(SCc2nc(NCCCOc3cccc(CN4CCCCC4)c3)n(C)n2)s1`, the melting point amounted to 63 °C. The value for `C#CCN1C(=O)COc2ccc(-c3ncc(C(F)(F)F)cc3Cl)cc21` was 136 to 137 °C; that for `Cc1cn(C2CC(O)C(C(O)I)O2)c(=O)[nH]c1=O` (centres undefined) was 172 to 175 °C; that for `COc1ccc(-c2cc3cc(OC)cc(C(O)C(F)(F)F)c3o2)cc1` (centres undefined) was 120 to 122 °C.

`CSC(=N[N+](=O)[O-])N(C)C(C)=O` registered a melting point of 40 to 41 °C. To `CCCCc1nn2cccc(C(=O)OC)c2c1Cc1ccc(Br)cc1` belongs 80 to 85 °C; to `O=C([C@@H](Cc1ccc(Cl)cc1)NC1CCOCC1)N1CCC(Cn2cncn2)(C2CCCCC2)CC1`, 75 °C; to `O=C1NCN(c2ccc(F)c(Cl)c2)C12CCN(C1CCC(c3ccc(F)cc3)(c3ccc(F)cc3)CC1)CC2`, 201 to 203 °C.

`CCOC(=O)c1cc(C)n(-c2cccc(C(N)=O)c2)c1-c1ccccc1` had a melting point of 209 to 210 °C. The value for `CCOC(=O)c1cn(C2CC2)c2cc(-c3cc(C)nc(CO)c3)c(F)cc2c1=O` was 240 °C; that for `COc1c(C=CC(=O)c2ccc(O)cc2)ccc(O)c1C` was 185 to 187 °C. Consider `Clc1ccc(-c2cc(C3CCN(Cc4ccccc4)CC3)n[nH]2)cc1`, for which the melting point is 164 to 167 °C. In turn, `O=C(O)c1cn(CC2CCCC2)c2cc(Cl)ccc12` had a melting point of 181 to 184 °C.

In turn, `CCCCN(CC)c1nc(C)nc2c1NC(=S)CN2c1ccc(C(C)C)cc1Br` gave a melting point of 148 to 149 °C. With `O=c1[nH]c2c(c3ccccc13)c1cc(Cl)ccc1n2CC1CC1`, the melting point was > 300 °C. To `Oc1ccc2nccc(Cl)c2c1` belongs 223 °C. To `CCCN(CCC)C1Cc2cc3c(cc2C1)C(=O)NC3` (centres undefined) belongs 206 to 208 °C; to `COc1cc(N=C(NC#N)Oc2ccccc2)cc(C(F)(F)F)c1`, 168 to 170 °C. To `CCCCCC(O)(c1cncnc1)C(C)(C)C` (centres undefined) belongs 66 to 67 °C; to `CCn1c(C)nc2cc(S(C)(=O)=O)c(Cl)c([N+](=O)[O-])c21`, 75 to 79 °C.

With `CN(CCOc1ccc(C(N)=O)cc1)CCc1ccc(N)cc1`, the melting point was 110 to 112 °C.

On to `Oc1ccc(Cc2nc(-c3cccs3)c[nH]2)cc1`, for which the melting point fell in the range of 189 to 191 °C. To `O=C(O)c1ccc(NC(=O)C(CC2CCCC2)c2cccc(Cl)c2)nc1` (centres undefined) belongs 251 to 255 °C; to `c1nc(Cc2ccc3c(c2)COCO3)c[nH]1`, 145 °C; to `Nc1c(-c2ccc(Br)cc2)nc2ccc(Cl)cc2c1C(=O)O`, 241 to 242 °C.

Regarding `COc1ccc(-c2c(C(C)=O)c(CBr)nc3cc(OC)c(OC)cc23)cc1OC`, the melting point lay within 181 to 182 °C. `Cc1c(NC(=O)CC(C)(C)C)c(C)c2c(c1-c1cccnc1)OCC2c1ccc(C(C)C)cc1` (centres undefined) yielded a melting point of 142 to 144 °C.

Compound `Clc1cccc(Nc2nccc(Cl)n2)c1` returned a melting point of 112 to 114 °C. The value for `N#Cc1ccc(N2C(=O)N(CCCCCN3C(=O)N(c4ccc(C#N)c(C(F)(F)F)c4)C(=O)C34CC4)C3(CC3)C2=O)cc1C(F)(F)F` was 154 to 155 °C; that for `C=CC(C)C1CCC2C3CCC4=CC(O)CCC4(C)C3CCC12C` (centres undefined) was 121 to 123 °C.

Consider `Cc1ccc(-c2cc(N3CCCC3)c(C#N)c3c2-c2ccccc2C3)cc1`, for which the melting point lay in the range of 182 to 184 °C.

In the case of `CC(C)(C)NC(=O)[C@@H]1C[C@H](Cl)CN1C(=O)[C@@H](O)[C@H](Cc1ccccc1)NC(=O)[C@H](CC(N)=O)NC(=O)c1cnc2ccccc2n1`, the melting point was in the range of 132 to 134 °C.

Turning to `Cc1nnc(-c2cc(NCc3c(C)cccc3C)c3nc(C)n(C)c3c2)o1`, the melting point lay in the range of 256 to 257 °C. `O=C(NCCO)/C(=C/c1ccc(OC(F)(F)F)cc1)NC(=O)c1ccc(OCCC(F)(F)F)cc1`: the melting point lay in the range of 159 to 160 °C.

`COc1ccc(S(=O)(=O)Nc2cccc3c2Nc2ccccc2S3)cc1` showed a melting point of 158 to 160 °C. The value for `O=C(O)C1(c2ccc(CN3CCN(c4ccc(F)cc4)CC3)cc2)CC1` was 74 to 77 °C; that for `COc1cc(C)cc(OC)c1C1=NC(NC(=O)Nc2ccccc2Cl)C(=O)N(C)c2ccccc21` (centres undefined) was 260 °C. `CNc1cc(Oc2ccc(NC(=O)Nc3ccc(Br)c(C(F)(F)F)c3)cc2)ncn1`: the melting point lay within 161 to 164 °C.

`COc1ccc(CC[C@H](N)C(=O)O)cc1F` gave a melting point of 164 to 167 °C. Consider `CCOC(=O)CCCCCCCn1c(C)nc(-c2ccccc2)c1-c1ccccc1`, for which the melting point is 135 to 136 °C.

`N#Cc1ccc(C(=O)N2CCNC2=Nc2c(Cl)cccc2Cl)cc1` returned a melting point of 208 to 210 °C. `CCOC(=O)C1(C(=O)OCC)OC(=O)c2ccccc2C1(O)c1ccc(F)cc1` (centres undefined) yielded a melting point of 102 to 104 °C. The value for `O=C1C(Br)=C(Br)C(=O)c2c(F)cccc21` was 100 °C. Turning to `COc1ccc(C(=O)C=Cc2cccc(N(C)C)c2)c(OC)c1OC`, the melting point is 87.2 to 87.9 °C. The value for `FC(F)(F)c1ccc(-n2ccc3cnccc32)c(Cl)c1` was 160 to 161 °C.

`CC(C)N(CCON=C1c2ccccc2C2CC2c2ccccc21)C(C)C` (centres undefined) returned a melting point of 97 to 98 °C. In the case of `Cc1ccc(-c2nc3c(O)cccc3s2)cc1`, the melting point is 164 to 166 °C. `CCN(CC)C(=O)c1cc(-c2ccc(Cl)cc2)c2ccsc2c1` yielded a melting point of 135 °C. The value for `COc1ncc(CC2SC(N3CCOCC3)=NC2=O)cc1-c1ccc(O)c(C23CC4CC(CC(C4)C2)C3)c1` (centres undefined) was 175 to 177 °C; that for `O=c1c2c(c3cccnc3n1-c1ccccc1)SCC2` was 277 to 279 °C; that for `COc1ccc(-c2nc(Sc3ccccc3)[nH]c2-c2ccc(OC)cc2)cc1` was 177 to 179 °C. `CN(C)CCCOc1ccc(C(=O)NN)cn1` displayed a melting point of 81 to 83 °C. To `Fc1ccc([C@@H]2CCN(Cc3ccccc3)C[C@H]2COc2ccc3c(c2)OCO3)cc1` belongs 98 to 100 °C; to `CCn1c(=O)c(-c2cccs2)cc2cnc(Nc3ccccc3)nc21`, 223 to 225 °C; to `CCOC(=O)c1cc(-n2c(=O)[nH]c3c(c2=O)CCCC3)ccc1Cl`, 196 to 198 °C.

For `COc1cccc(CCl)c1SCc1ccccc1`, the melting point was determined as 54 °C. The compound `COc1cc(OC)c(N2CCCC2)cc1/C=C/C(=O)c1ccc(S(N)(=O)=O)cc1` displayed a melting point of 220 to 222 °C. For the compound `CCCc1ncc(C=CC=CC(=O)OCC)s1`, the melting point was 52 °C. The value for `COc1cccc(C2CCC(=O)N2)c1` (centres undefined) was 84 to 85 °C; that for `CC(C)(C)C1OC1C(O)c1ccccc1` (centres undefined) was 57 to 59 °C. The value for `COC(=O)/C(C)=C/COc1cccc(O)c1` was 79 to 81 °C. The value for `CCCOc1ccccc1-c1nc2cc3ncn(Cc4ccc(Cl)cc4)c3cc2c(=O)[nH]1` was 136 to 137 °C; that for `COc1cc(OC)c2c(=O)[nH]c(-c3ccc(OCCNC(C)C)c(-c4ccc(S(C)=O)cc4)n3)nc2c1` (centres undefined) was 93 to 95 °C; that for `Cc1nc(-n2ccc(C3CC3)cc2=O)sc1C(=O)NCc1ccccc1` was 149 to 151 °C. Take `c1ccc2c(c1)CC(CN1CCN(c3ccc4c(c3)OCC4)CC1)C2`: the melting point was 171 to 173 °C. The value for `CC(=NO)C(C)(C)COc1ccc(F)cc1` was 65 to 66 °C.

`COc1ccc(CC2Cc3cc(C)cnc3C(OC(C)=O)C2)cc1` (single isomer, unassigned; (+)) returned a melting point of 94 to 98 °C.
